# Assay results from patent US20230085307A1, “PYRIDAZINONE COMPOUND AND HERBICIDE” (NISSAN CHEMICAL CORPORATION, priority 2019, published 2023).
# What was measured:
# redroot pigweed [1] = assay: Test Example 4: herbicidal effect by soil treatment (Table 19, symbol N); type: in vivo, redroot pigweed (Amaranthus retroflexus); settings: amount of applied herbicide 320 g/ha
# How it was run: (§1)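 Soil-surface application: an emulsion agent diluted with water to the predetermined dose is sprayed uniformly over seeds lying under roughly 1.5 cm of sterilized diluvial soil. Boxes stay in a greenhouse at 25° C. to 30° C. Three weeks later, each species is graded on previously defined criteria.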
# blackgrass [2] = assay: Test Example 4: herbicidal effect by soil treatment (Table 19, symbol J); type: in vivo, blackgrass (Alopecurus myosuroides); settings: amount of applied herbicide 320 g/ha
# How it was run: as §1
# chickweed [3] = assay: Test Example 5: herbicidal effect by foliage application, plastic box (Table 20, symbol P); type: in vivo, common chickweed (Stellaria media); settings: foliage application, 320 g/ha, evaluated three weeks after application
# How it was run: (§2)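 Sow seeds spot-wise in sterilized diluvial soil; cover with ~1.5 cm soil. Grow 14 days in greenhouse, 25° C. to 30° C. Spray foliage with emulsion diluted to predetermined amount. Rate effect after 3 weeks.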
# false cleavers [4] = assay: Test Example 5: herbicidal effect by foliage application, plastic box (Table 20, symbol Q); type: in vivo, false cleavers (Galium spurium); settings: foliage application, 320 g/ha
# How it was run: as §2
# false cleavers [5] = assay: Test Example 4: herbicidal effect by soil treatment (Table 19, symbol Q); type: in vivo, false cleavers (Galium spurium); settings: amount of applied herbicide 320 g/ha
# How it was run: as §1
# chickweed [6] = assay: Test Example 4: herbicidal effect by soil treatment (Table 19, symbol P); type: in vivo, common chickweed (Stellaria media); settings: amount of applied herbicide 320 g/ha
# How it was run: as §1
# southern crabgrass [7] = assay: Test Example 5: herbicidal effect by foliage application, plastic box (Table 20, symbol F); type: in vivo, southern crabgrass (Digitaria ciliaris); settings: foliage application, 320 g/ha
# How it was run: as §2
# barnyard grass [8] = assay: Test Example 5: herbicidal effect by foliage application, plastic box (Table 20, symbol H); type: in vivo, barnyard grass (Echinochloa crus-galli); settings: foliage application, 320 g/ha
# How it was run: as §2
# Italian ryegrass [9] = assay: Test Example 5: herbicidal effect by foliage application, plastic box (Table 20, symbol K); type: in vivo, Italian ryegrass (Lolium multiflorum); settings: foliage application, 320 g/ha
# How it was run: as §2
# southern crabgrass [10] = assay: Test Example 4: herbicidal effect by soil treatment (Table 19, symbol F); type: in vivo, southern crabgrass (Digitaria ciliaris); settings: amount of applied herbicide 320 g/ha
# How it was run: as §1
# green foxtail [11] = assay: Test Example 4: herbicidal effect by soil treatment (Table 19, symbol G); type: in vivo, green foxtail (Setaria viridis); settings: amount of applied herbicide 320 g/ha
# How it was run: as §1
# redroot pigweed [12] = assay: Test Example 5: herbicidal effect by foliage application, plastic box (Table 20, symbol N); type: in vivo, redroot pigweed (Amaranthus retroflexus); settings: foliage application, 320 g/ha, evaluated three weeks after application
# How it was run: as §2
# wild oat [13] = assay: Test Example 4: herbicidal effect by soil treatment (Table 19, symbol I); type: in vivo, wild oat (Avena fatua); settings: amount of applied herbicide 320 g/ha
# How it was run: as §1
# windgrass [14] = assay: Test Example 5: herbicidal effect by foliage application, plastic box (Table 20, symbol L); type: in vivo, windgrass (Apera spica-venti); settings: foliage application, 320 g/ha
# How it was run: as §2
# barnyard grass [15] = assay: Test Example 4: herbicidal effect by soil treatment (Table 19, symbol H); type: in vivo, barnyard grass (Echinochloa crus-galli); settings: amount of applied herbicide 320 g/ha
# How it was run: as §1
# persian speedwell [16] = assay: Test Example 5: herbicidal effect by foliage application, plastic box (Table 20, symbol R); type: in vivo, Persian speedwell (Veronica persica); settings: foliage application, 320 g/ha
# How it was run: as §2
# lambsquarters [17] = assay: Test Example 4: herbicidal effect by soil treatment (Table 19, symbol O); type: in vivo, lambsquarters (Chenopodium album); settings: amount of applied herbicide 320 g/ha
# How it was run: as §1
# blackgrass [18] = assay: Test Example 5: herbicidal effect by foliage application, plastic box (Table 20, symbol J); type: in vivo, blackgrass (Alopecurus myosuroides); settings: foliage application, 320 g/ha
# How it was run: as §2
# Italian ryegrass [19] = assay: Test Example 4: herbicidal effect by soil treatment (Table 19, symbol K); type: in vivo, Italian ryegrass (Lolium multiflorum); settings: amount of applied herbicide 320 g/ha
# How it was run: as §1
# velvetleaf [20] = assay: Test Example 4: herbicidal effect by soil treatment (Table 19, symbol M); type: in vivo, velvetleaf (Abutilon theophrasti); settings: amount of applied herbicide 320 g/ha
# How it was run: as §1
# lambsquarters [21] = assay: Test Example 5: herbicidal effect by foliage application, plastic box (Table 20, symbol O); type: in vivo, lambsquarters (Chenopodium album); settings: foliage application, 320 g/ha
# How it was run: as §2
# green foxtail [22] = assay: Test Example 5: herbicidal effect by foliage application, plastic box (Table 20, symbol G); type: in vivo, green foxtail (Setaria viridis); settings: foliage application, 320 g/ha
# How it was run: as §2
# wild oat [23] = assay: Test Example 5: herbicidal effect by foliage application, plastic box (Table 20, symbol I); type: in vivo, wild oat (Avena fatua); settings: foliage application, 320 g/ha
# How it was run: as §2
# velvetleaf [24] = assay: Test Example 5: herbicidal effect by foliage application, plastic box (Table 20, symbol M); type: in vivo, velvetleaf (Abutilon theophrasti); settings: foliage application, 320 g/ha
# How it was run: as §2
# windgrass [25] = assay: Test Example 4: herbicidal effect by soil treatment (Table 19, symbol L); type: in vivo, windgrass (Apera spica-venti); settings: amount of applied herbicide 320 g/ha
# How it was run: as §1
# barnyard grass [26] = assay: Test Example 3: herbicidal effect by foliage application, Wagner pot (Table 18, symbol H); type: in vivo, barnyard grass (Echinochloa crus-galli); settings: 320 g/ha
# How it was run: (§3)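 Plants were sown in alluvial soil held under 0.1–0.5 cm standing water and grown 14 days in a greenhouse at 25–30 °C. An emulsifiable formulation, water-diluted to the set dose, was then sprayed onto the foliage, and effects were scored three weeks later using previously defined criteria.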
# persian speedwell [27] = assay: Test Example 4: herbicidal effect by soil treatment (Table 19, symbol R); type: in vivo, Persian speedwell (Veronica persica); settings: amount of applied herbicide 320 g/ha
# How it was run: as §1
# rice flat sedge = assay: Test Example 3: herbicidal effect by foliage application, Wagner pot (Table 18, symbol E); type: in vivo, rice flat sedge (Cyperus iria); settings: 320 g/ha
# How it was run: as §3
# Chinese sprangletop = assay: Test Example 3: herbicidal effect by foliage application, Wagner pot (Table 18, symbol D); type: in vivo, chinese sprangletop (Leptochloa chinensis); settings: 320 g/ha
# How it was run: as §3
# [28] = evaluated three weeks after application
smiles,measurement,setting,value
COc1cccc(OC)c1-c1sc2ccc(Cl)cc2c1-c1c(O)c(C)nn(C)c1=O [2-121],"N: redroot pigweed, herbicidal effect rating",redroot pigweed [1],0 (Herbicidal rate of 5% or less (almost no effect))
same,"J: blackgrass, herbicidal effect rating",blackgrass [2],0 (Herbicidal rate of 5% or less (almost no effect))
same,herbicidal effect on P: chickweed,chickweed [3],3 (Herbicidal rate of 40% or more and less than 70%)
same,herbicidal effect on Q: false cleavers,false cleavers [4]; [28],2 (Herbicidal rate of 20% or more and less than 40%)
same,"Q: false cleavers, herbicidal effect rating",false cleavers [5],0 (Herbicidal rate of 5% or less (almost no effect))
same,"P: chickweed, herbicidal effect rating",chickweed [6],3 (Herbicidal rate of 40% or more and less than 70%)
same,herbicidal effect on F: southern crabgrass,southern crabgrass [7]; [28],0 (Herbicidal rate of 5% or less (almost no effect))
same,herbicidal effect on H: barnyard grass,barnyard grass [8]; [28],0 (Herbicidal rate of 5% or less (almost no effect))
same,herbicidal effect on K: Italian ryegrass,Italian ryegrass [9]; [28],0 (Herbicidal rate of 5% or less (almost no effect))
same,"F: southern crabgrass, herbicidal effect rating",southern crabgrass [10],0 (Herbicidal rate of 5% or less (almost no effect))
same,"G: green foxtail, herbicidal effect rating",green foxtail [11],0 (Herbicidal rate of 5% or less (almost no effect))
same,herbicidal effect on N: redroot pigweed,redroot pigweed [12],0 (Herbicidal rate of 5% or less (almost no effect))
same,"I: wild oat, herbicidal effect rating",wild oat [13],0 (Herbicidal rate of 5% or less (almost no effect))
same,herbicidal effect on L: windgrass,windgrass [14]; [28],0 (Herbicidal rate of 5% or less (almost no effect))
same,"H: barnyard grass, herbicidal effect rating",barnyard grass [15],0 (Herbicidal rate of 5% or less (almost no effect))
same,herbicidal effect on R: persian speedwell,persian speedwell [16]; [28],0 (Herbicidal rate of 5% or less (almost no effect))
same,"O: lambsquarters, herbicidal effect rating",lambsquarters [17],0 (Herbicidal rate of 5% or less (almost no effect))
same,herbicidal effect on J: blackgrass,blackgrass [18]; [28],0 (Herbicidal rate of 5% or less (almost no effect))
same,"K: Italian ryegrass, herbicidal effect rating",Italian ryegrass [19],0 (Herbicidal rate of 5% or less (almost no effect))
same,"M: velvetleaf, herbicidal effect rating",velvetleaf [20],0 (Herbicidal rate of 5% or less (almost no effect))
same,herbicidal effect on O: lambsquarters,lambsquarters [21]; [28],0 (Herbicidal rate of 5% or less (almost no effect))
same,herbicidal effect on G: green foxtail,green foxtail [22]; [28],0 (Herbicidal rate of 5% or less (almost no effect))
same,herbicidal effect on I: wild oat,wild oat [23]; [28],0 (Herbicidal rate of 5% or less (almost no effect))
same,herbicidal effect on M: velvetleaf,velvetleaf [24]; [28],0 (Herbicidal rate of 5% or less (almost no effect))
same,"L: windgrass, herbicidal effect rating",windgrass [25],0 (Herbicidal rate of 5% or less (almost no effect))
COc1cc2sc(-c3ccccc3OC)c(-c3c(O)c(C)nn(C)c3=O)c2cc1OC [5-059],"N: redroot pigweed, herbicidal effect grade",redroot pigweed [1],0 (Herbicidal rate of 5% or less (almost no effect))
same,"J: blackgrass, herbicidal effect grade",blackgrass [2],3 (Herbicidal rate of 40% or more and less than 70%)
same,herbicidal effect on false cleavers (Q),false cleavers [4]; three weeks after application,0 (Herbicidal rate of 5% or less (almost no effect))
same,"Q: false cleavers, herbicidal effect grade",false cleavers [5],0 (Herbicidal rate of 5% or less (almost no effect))
same,"P: chickweed, herbicidal effect grade",chickweed [6],0 (Herbicidal rate of 5% or less (almost no effect))
same,herbicidal effect on southern crabgrass (F),southern crabgrass [7]; three weeks after application,4 (Herbicidal rate of 70% or more and less than 90%)
same,herbicidal effect on barnyard grass (H),barnyard grass [8]; three weeks after application,3 (Herbicidal rate of 40% or more and less than 70%)
same,herbicidal effect on Italian ryegrass (K),Italian ryegrass [9]; three weeks after application,4 (Herbicidal rate of 70% or more and less than 90%)
same,herbicidal effect on barnyard grass (H),barnyard grass [26],5 (Herbicidal rate of 90% or more (almost completely withered))
same,"F: southern crabgrass, herbicidal effect grade",southern crabgrass [10],0 (Herbicidal rate of 5% or less (almost no effect))
same,"G: green foxtail, herbicidal effect grade",green foxtail [11],0 (Herbicidal rate of 5% or less (almost no effect))
same,"I: wild oat, herbicidal effect grade",wild oat [13],0 (Herbicidal rate of 5% or less (almost no effect))
same,herbicidal effect on windgrass (L),windgrass [14]; three weeks after application,4 (Herbicidal rate of 70% or more and less than 90%)
same,"H: barnyard grass, herbicidal effect grade",barnyard grass [15],0 (Herbicidal rate of 5% or less (almost no effect))
same,herbicidal effect on persian speedwell (R),persian speedwell [16]; three weeks after application,4 (Herbicidal rate of 70% or more and less than 90%)
same,"O: lambsquarters, herbicidal effect grade",lambsquarters [17],0 (Herbicidal rate of 5% or less (almost no effect))
same,herbicidal effect on blackgrass (J),blackgrass [18]; three weeks after application,5 (Herbicidal rate of 90% or more (almost completely withered))
same,"R: persian speedwell, herbicidal effect grade",persian speedwell [27],0 (Herbicidal rate of 5% or less (almost no effect))
same,"K: Italian ryegrass, herbicidal effect grade",Italian ryegrass [19],4 (Herbicidal rate of 70% or more and less than 90%)
same,"M: velvetleaf, herbicidal effect grade",velvetleaf [20],0 (Herbicidal rate of 5% or less (almost no effect))
same,herbicidal effect on rice flat sedge (E),rice flat sedge,4 (Herbicidal rate of 70% or more and less than 90%)
same,herbicidal effect on Chinese sprangletop (D),Chinese sprangletop,3 (Herbicidal rate of 40% or more and less than 70%)
same,herbicidal effect on lambsquarters (O),lambsquarters [21]; three weeks after application,4 (Herbicidal rate of 70% or more and less than 90%)
same,herbicidal effect on green foxtail (G),green foxtail [22]; three weeks after application,4 (Herbicidal rate of 70% or more and less than 90%)
same,herbicidal effect on wild oat (I),wild oat [23]; three weeks after application,4 (Herbicidal rate of 70% or more and less than 90%)
same,herbicidal effect on velvetleaf (M),velvetleaf [24]; three weeks after application,3 (Herbicidal rate of 40% or more and less than 70%)
same,"L: windgrass, herbicidal effect grade",windgrass [25],3 (Herbicidal rate of 40% or more and less than 70%)
